Measured values: PMC5749289, “Cytotoxicity Study of Cyclopentapeptide Analogues of Marine Natural Product Galaxamide towards Human Breast Cancer Cells” (Oxidative Medicine and Cellular Longevity, 2017)
≈ marks a conversion by molar mass, not a printed value. Where a SMILES comes first, the peptide text is derived from it.

How the values were obtained:
[1] = system: human epitheloid cervix carcinoma HeLa; assay: cells; type: cell-based; details: 48 h
Protocol: (§1) Human hepatocellular carcinoma HepG2, human breast carcinoma MCF-7, human epitheloid cervix carcinoma HeLa, human breast carcinoma MB-MDA-231 cell lines, and a normal human umbilical vein endothelial cell line (HUVECs) were obtained from the China Cell Bank of the Institute of Biochemistry and were cultured in a DMEM culture medium (DMEM, Corning, NY, USA) containing 10% fetal bovine serum (FBS, Hyclone, Logan, UT, USA), 1% penicillin-streptomycin, and an antifungal agent in a 5% CO2-humidified atmosphere at 37°C. The culture medium was replaced once in a day. Trypsin digestion method was adopted for cell propagation. Upon reaching 80–90% confluence, the cells were rinsed twice with PBS. A certain amount of 0.25% trypsin digestion solution was then added and maintained for 3–5 min at 37°C. Afterward, DMEM culture medium containing 10% fetal bovine serum was added to terminate the digestion. The cells were then blown well to form single-cell suspensions.
(§2) The cell viability was determined by measuring the ability of cells to transform MTT (3-(4,5-dimethylthiazol-2-yl)-2,5-diphenyltetrazolium bromide) (GENView, Houston, TX, USA) to a purple formazan dye. The cells were seeded in 96-well cell culture plates at 2.5 × 10^3 cells/well for 24 h. The cells were then incubated with galaxamide and its analogues for 48 h. After incubation, 20 μL/well of MTT solution (5 mg/mL phosphate buffered saline) was added and incubated for 5 h. The medium was aspirated and replaced with 100 μL/well of DMSO to dissolve the formazan salt. The color intensity of the formazan solution, which reflects the cell growth condition, was measured at 570 nm using a microplate spectrophotometer (SpectroAma™ 250, Winooski, VT, USA).

[2] = system: human breast carcinoma MCF-7; assay: cells; type: cell-based
Protocol: as §1, §2

[3] = system: human breast carcinoma MB-MDA-231; assay: cells; type: cell-based; details: 48 h
Protocol: as §1, §2

[4] = system: human hepatocellular carcinoma HepG2; assay: cells; type: cell-based; details: 48 h
Protocol: as §1, §2

[5] = system: normal human umbilical vein endothelial cell line (HUVECs); type: cell-based; details: 48 h
Protocol: as §1, §2

MCF-7 cells [6] = assay: Intracellular ROS assay, DCFH-DA, flow cytometry; type: cell-based, human; details: MCF-7, 2.5, 5.0 and 10.0 μg/mL, 48 h
Protocol: Two milliliters of cell suspension with a cell concentration of 1 × 10^5 cells/mL was inoculated per well in 6-well plates. After synchronization, the cells were incubated with galaxamide and representative analogue (0, 2.5, 5, and 10 μg/mL) for 48 h. Afterwards, the supernatant was aspirated and the cells were washed twice with PBS and digested with 0.25% trypsin. Then, DMEM supplemented with 10% fetal bovine serum was added to terminate digestion. The cells were suspended by pipetting, followed by centrifugation (1000 rpm, 5 min). The supernatant was aspirated and the cells were washed once with PBS and centrifuged again to obtain a cell pellet. The cells were resuspended by adding and thoroughly mixing […] in a microcentrifuge tube. The samples were then stained with DCFH-DA ([…]) and analyzed by flow cytometry.

MCF-7 cells [7] = assay: Mitochondrial membrane potential, JC-1 staining, flow cytometry; type: cell-based, human; details: MCF-7, 2.5, 5.0 and 10.0 μg/mL, 48 h
Protocol: The cell suspension (2 mL) with a concentration of 1 × 10^5 cells/mL was inoculated per well in 6-well plates for 12 h. After 48 h of incubation with galaxamide and representative compound at the concentration of 0, 2.5, 5, and 10 μg/mL, the supernatant was aspirated and the cells were washed twice with PBS and digested with 0.25% trypsin. The cells were suspended by pipetting, followed by centrifugation (1000 rpm, 5 min). The supernatant was aspirated and the cells were washed with PBS and centrifuged again to obtain a cell pellet. The cells were resuspended by adding and thoroughly mixing 500 μL of PBS in a microcentrifuge tube. Finally, the samples were stained with JC-1 (5,5′,6,6′-tetrachloro-1,1′,3,3′-tetraethylbenzimi-dazolylcarbocyanine iodide) and incubated in darkness at 37°C for 15 min. After the treatment, the cells were detected by flow cytometry.

MCF-7 cells [8] = assay: Cell cycle analysis by PI staining, flow cytometry; type: cell-based, human; details: MCF-7, 2.5, 5.0 and 10.0 μg/mL, 48 h
Protocol: MCF-7 cells with the density of about 1.5 × 10^5 were incubated with galaxamide and representative analogue (0, 2.5, 5, and 10 μg/mL) for 48 h. Afterwards, collected cells were washed twice with PBS and centrifugation (1000 rpm, 5 min), then fixed using 70% ethanol for 12 h at 4°C. Ethanol was removed by centrifugation (2000 rpm, 5 min), and the cells were washed twice with PBS. Cells were then resuspended in […] and kept at 37°C for 15 min. The cell cycle was analyzed by flow cytometry measuring the amount of PI-labeled DNA in fixed cells.

MCF-7 cells [9] = assay: Annexin V-FITC/PI apoptosis, flow cytometry; type: cell-based, human; details: MCF-7, 2.5, 5 and 10 μg/mL, 48 h
Protocol: The apoptotic cells were quantified using an Annexin V-FITC (fluorescein isothiocyanate) (Sigma-Aldrich, St. Louis, MO, USA) cell apoptosis assay kit according to the instruction provided with the kit. In brief, about 1.5 × 10^5 cells were plated in 6-well plates and treated with galaxamide and representative compound (0, 2.5, 5, and 10 μg/mL) for 48 h. The cells were resuspended in […] binding buffer. Afterwards, […] was added and then incubated in darkness at room temperature for 10 min. The cells were again resuspended in […] binding buffer and stained with […] (propidium iodide). The prepared cells were then analyzed using a flow cytometry (Coulter Epics Elite, Miami, FL, USA). The cells in the FITC-positive and PI-negative fractions were regarded as apoptotic cells.

[10] = from Table 1 IC50 values (fits MCF-7)

## CC(C)C[C@@H]1NC(=O)[C@H](CC(C)C)N(C)C(=O)[C@H](Cc2ccccc2)NC(=O)[C@H](CC(C)C)N(C)C(=O)[C@H](CC(C)C)NC1=O [Compound 1, cyclo(Phe-N-Me-Leu-Leu-Leu-N-Me-Leu)]
[1]
  IC50 (μg/mL) values in various cell lines, HeLa: 13.22 ± 1.12 µg/mL (≈ 21.1 µM)
[2]; 48 h
  IC50 (μg/mL) values in various cell lines, MCF-7: 4.76 ± 1.36 µg/mL (≈ 7.58 µM)
[3]
  IC50 (μg/mL) values in various cell lines, MD-MBA-231: 5.83 ± 0.45 µg/mL (≈ 9.29 µM)
[4]
  IC50 (μg/mL) values in various cell lines, HepG2: 6.25 ± 1.03 µg/mL (≈ 9.95 µM)
[5]
  IC50 (μg/mL) values in various cell lines, HUVECs: >40 µg/mL

## CC(C)C[C@@H]1NC(=O)[C@H](CC(C)C)N(C)C(=O)[C@H](Cc2ccc3ccccc3c2)NC(=O)[C@H](CC(C)C)N(C)C(=O)[C@H](CC(C)C)NC1=O [Compound 2, cyclo(Nal-N-Me-Leu-Leu-Leu-N-Me-Leu)] (HELM PEPTIDE1{[O=C([C@H](Cc1ccc2ccccc2c1)N[*:1])[*:2]].[meL].L.L.[meL]}$PEPTIDE1,PEPTIDE1,1:R1-5:R2$$$V2.0)
[2]; 48 h
  IC50 (μg/mL) values in various cell lines, MCF-7: 3.16 ± 0.92 µg/mL (≈ 4.66 µM)
[3]
  IC50 (μg/mL) values in various cell lines, MD-MBA-231: 4.48 ± 2.24 µg/mL (≈ 6.61 µM)
[4]
  IC50 (μg/mL) values in various cell lines, HepG2: 8.42 ± 1.82 µg/mL (≈ 12.4 µM)
[5]
  IC50 (μg/mL) values in various cell lines, HUVECs: >40 µg/mL

## CC(C)C[C@@H]1NC(=O)[C@H](CC(C)C)N(C)C(=O)[C@H](Cc2c[nH]c3ccccc23)NC(=O)[C@H](CC(C)C)N(C)C(=O)[C@H](CC(C)C)NC1=O [Compound 3, cyclo(Trp-N-Me-Leu-Leu-Leu-N-Me-Leu)] (HELM PEPTIDE1{L.L.[meL].W.[meL]}$PEPTIDE1,PEPTIDE1,1:R1-5:R2$$$V2.0)
[1]
  IC50 (μg/mL) values in various cell lines, HeLa: 5.32 ± 0.42 µg/mL (≈ 7.98 µM)
[2]
  cytotoxicity relative to parent structure galaxamide: almost sixfold higher cytotoxicity
[2]; 48 h
  IC50 (μg/mL) values in various cell lines, MCF-7: 1.72 ± 0.85 µg/mL (≈ 2.58 µM)
[2]; [10]
  fold less active than doxorubicin: 3.44 fold
  fold more active than anticancer drug DPP: 8.49 fold
[3]
  IC50 (μg/mL) values in various cell lines, MD-MBA-231: 3.51 ± 1.32 µg/mL (≈ 5.26 µM)
[4]
  IC50 (μg/mL) values in various cell lines, HepG2: 3.98 ± 0.71 µg/mL (≈ 5.97 µM)
MCF-7 cells [6]
  intracellular ROS: induced ROS in a dose-dependent manner
MCF-7 cells [7]
  JC-1 fluorescence ratio (red/green), MMP: reduced dose dependently
[5]
  IC50 (μg/mL) values in various cell lines, HUVECs: >40 µg/mL
MCF-7 cells [8]
  cell cycle arrest: induced a significant G1 phase arrest of cell cycle progression in a dose-dependent manner
MCF-7 cells [9]
  induction of apoptosis: significantly induced the apoptosis of human breast cancer MCF-7 cells in a dose-dependent manner

## N.N.[Cl][Pt][Cl] [DPP, reference compound]
[1]; HeLa, MTT, mean ± SD of three experiments
  IC50 (μg/mL) values in various cell lines, HeLa: 8.90 ± 0.89 µg/mL
[2]; MCF-7, MTT, 48 h, mean ± SD of three experiments
  IC50 (μg/mL) values in various cell lines, MCF-7: 14.61 ± 2.01 µg/mL
[3]; MD-MBA-231, MTT, mean ± SD of three experiments
  IC50 (μg/mL) values in various cell lines, MD-MBA-231: 13.75 ± 0.56 µg/mL
[4]; HepG2, MTT, mean ± SD of three experiments
  IC50 (μg/mL) values in various cell lines, HepG2: 10.43 ± 1.23 µg/mL

## COc1cccc2c1C(=O)c1c(O)c3c(c(O)c1C2=O)C[C@@](O)(C(=O)CO)C[C@@H]3O[C@H]1C[C@H](N)[C@H](O)[C@H](C)O1 [Doxorubicin, reference compound]
[1]; Homo sapiens, HeLa, MTT, mean ± SD of three experiments, read-out: IC50 (μg/mL) values in various cell lines, HeLa
  IC50: 0.32 ± 0.22 µg/mL (≈ 0.589 µM)
[2]; Homo sapiens, MCF7, MCF-7, MTT, 48 h, mean ± SD of three experiments, read-out: IC50 (μg/mL) values in various cell lines, MCF-7
  IC50: 0.5 ± 0.48 µg/mL (≈ 0.92 µM)
[3]; Homo sapiens, MD-MBA-231, MTT, mean ± SD of three experiments, read-out: IC50 (μg/mL) values in various cell lines, MD-MBA-231
  IC50: 1.29 ± 0.57 µg/mL (≈ 2.37 µM)
[4]; Homo sapiens, HepG2, MTT, mean ± SD of three experiments, read-out: IC50 (μg/mL) values in various cell lines, HepG2
  IC50: 2.27 ± 0.24 µg/mL (≈ 4.18 µM)

## CC(C)C[C@@H]1NC(=O)[C@H](CC(C)C)N(C)C(=O)[C@H](CC(C)C)NC(=O)[C@H](CC(C)C)N(C)C(=O)[C@H](CC(C)C)NC1=O [Galaxamide, galaxamide] (HELM PEPTIDE1{L.L.[meL].L.[meL]}$PEPTIDE1,PEPTIDE1,1:R1-5:R2$$$V2.0)
MCF-7 cells [6]
  intracellular ROS: induced ROS in a dose-dependent manner
MCF-7 cells [7]
  JC-1 fluorescence ratio (red/green), MMP: reduced dose dependently
